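Compound exposure: 48 hours, 5 concentrations, 96-well plates. GI50 = concentration required for 50% inhibition of growth.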 The source made the active and inactive calls. Rule as the data show it: active = GI50 up to about 1.1 µM and inactive = higher.
Key:
Experiment in all cases: NCI-60 cell line screen, 48 h
[1] = tested on: NCI-H226
[2] = tested on: ACHN
[3] = tested on: MCF7
[4] = tested on: M14
[5] = tested on: SN12C
[6] = tested on: SK-MEL-2
[7] = tested on: NCI-H522
[8] = tested on: TK-10
[9] = tested on: Malme-3M
[10] = tested on: RXF 393
[11] = tested on: PC-3
[12] = tested on: LOX IMVI
[13] = tested on: MDA-MB-435
[14] = tested on: K562
[15] = tested on: NCI-H460
[16] = tested on: UO-31
[17] = tested on: SF-539
[18] = tested on: NCI-H23
[19] = tested on: SNB-19
[20] = tested on: U-251

Compound | GI50 [1] | GI50 [2] | GI50 [3] | GI50 [4] | GI50 [5] | GI50 [6] | GI50 [7] | GI50 [8] | GI50 [9] | GI50 [10] | GI50 [11] | GI50 [12] | GI50 [13] | GI50 [14] | GI50 [15] | GI50 [16] | GI50 [17] | GI50 [18] | GI50 [19] | GI50 [20]
Oc1c(CN2CCOCC2)ccc(CN2CCOCC2)c1O | 28.4 µM (inactive) | 30.9 µM (inactive) | 35.2 µM (inactive) | 22.9 µM (inactive) | 25.6 µM (inactive) | 29 µM (inactive) | 29.6 µM (inactive) | 47.2 µM (inactive) | 31 µM (inactive) | 29.2 µM (inactive) | 48 µM (inactive) | 39 µM (inactive) | 81.7 µM (inactive) | 34.3 µM (inactive) | 25.7 µM (inactive) | 18 µM (inactive) | 25.7 µM (inactive) | 36.6 µM (inactive) | 43.3 µM (inactive) | 40.1 µM (inactive)
OCCCNCc1ccncc1 | > 100 µM (inactive) | > 100 µM (inactive) | > 100 µM (inactive) | > 100 µM (inactive) | > 100 µM (inactive) | > 100 µM (inactive) | > 100 µM (inactive) | > 100 µM (inactive) | > 100 µM (inactive) | > 100 µM (inactive) | > 100 µM (inactive) | > 100 µM (inactive) | > 100 µM (inactive) | > 100 µM (inactive) | > 100 µM (inactive) | > 100 µM (inactive) | > 100 µM (inactive) | > 100 µM (inactive) | > 100 µM (inactive) | > 100 µM (inactive)
COc1cc(C2C3=C(COC3=O)Oc3cc4c(cc32)OCO4)ccc1O (stereo not given) | 9.55 µM (inactive) | 0.653 µM (active) | 0.277 µM (active) | 0.439 µM (active) | 2.69 µM (inactive) | 0.543 µM (active) | 0.0792 µM (active) | > 100 µM (inactive) | 0.174 µM (active) | 0.306 µM (active) | 0.167 µM (active) | 0.601 µM (active) | 0.0552 µM (active) | 0.148 µM (active) | 0.308 µM (active) | 0.327 µM (active) | 0.281 µM (active) | 0.65 µM (active) | 0.333 µM (active) | 0.467 µM (active)
Cc1nc(C(N)=S)sc1C(=O)C/C(=N/N)C(=O)Nc1cccc(Cl)c1C | > 100 µM (inactive) | > 100 µM (inactive) | > 100 µM (inactive) | > 100 µM (inactive) | > 100 µM (inactive) | > 100 µM (inactive) | > 100 µM (inactive) | > 100 µM (inactive) | > 100 µM (inactive) | > 100 µM (inactive) | > 100 µM (inactive) | > 100 µM (inactive) | > 100 µM (inactive) | > 100 µM (inactive) | > 100 µM (inactive) | > 100 µM (inactive) | > 100 µM (inactive) | > 100 µM (inactive) | > 100 µM (inactive) | > 100 µM (inactive)
NC(=S)Nc1nc(=S)[nH]c2c1SC1=N/C(=C\c3ccco3)C(=O)N12 | > 47.8 µM (inactive) | > 100 µM (inactive) | 29.1 µM (inactive) | > 60.7 µM (inactive) | > 100 µM (inactive) | > 83.4 µM (inactive) | 27 µM (inactive) | > 100 µM (inactive) | 44.7 µM (inactive) | > 100 µM (inactive) | > 100 µM (inactive) | 40.6 µM (inactive) | > 100 µM (inactive) | 28.4 µM (inactive) | 68.7 µM (inactive) | > 100 µM (inactive) | > 77.6 µM (inactive) | > 100 µM (inactive) | > 100 µM (inactive) | > 100 µM (inactive)
N/C(=N\Nc1cccc(Cl)c1)c1cccnc1 | 33.9 µM (inactive) | 18.9 µM (inactive) | 38.7 µM (inactive) | 17.1 µM (inactive) | 60 µM (inactive) | 36.9 µM (inactive) | 29.6 µM (inactive) | 28.6 µM (inactive) | 97.9 µM (inactive) | 23.1 µM (inactive) | 31 µM (inactive) | 50 µM (inactive) | 2.72 µM (inactive) | 4.04 µM (inactive) | 35.2 µM (inactive) | 7.87 µM (inactive) | 30.2 µM (inactive) | 43.5 µM (inactive) | 58.9 µM (inactive) | 41.8 µM (inactive)
O=C1OC[C@H]2[C@@H]1[C@H]1O[C@@H]2C2=C(CCC2)C1=O | > 100 µM (inactive) | > 100 µM (inactive) | > 100 µM (inactive) | > 100 µM (inactive) | > 100 µM (inactive) | > 100 µM (inactive) | > 100 µM (inactive) | > 100 µM (inactive) | > 100 µM (inactive) | > 100 µM (inactive) | > 100 µM (inactive) | > 100 µM (inactive) | > 100 µM (inactive) | > 100 µM (inactive) | > 100 µM (inactive) | > 100 µM (inactive) | > 100 µM (inactive) | > 100 µM (inactive) | > 100 µM (inactive) | > 100 µM (inactive)
CC(=O)N1C(CCc2ccccc2)CC(C)(C=O)C1Cc1ccc(O[Si](C(C)C)(C(C)C)C(C)C)cc1 (stereo not given) | 6.76 µM (inactive) | 6.89 µM (inactive) | 2.05 µM (inactive) | 1.85 µM (inactive) | 3.29 µM (inactive) | 3.48 µM (inactive) | 2.15 µM (inactive) | 3.68 µM (inactive) | 14.2 µM (inactive) | 1.69 µM (inactive) | 3.18 µM (inactive) | 1.94 µM (inactive) | 2.63 µM (inactive) | 2.72 µM (inactive) | 2.96 µM (inactive) | 3.21 µM (inactive) | 2.43 µM (inactive) | 5.53 µM (inactive) | 4.83 µM (inactive) | 3.12 µM (inactive)
Cc1ccc(/N=N/c2ccc(O)c(CN(C)C)c2)cc1C | 26.9 µM (inactive) | 17.6 µM (inactive) | 35.3 µM (inactive) | 33 µM (inactive) | > 100 µM (inactive) | 16.2 µM (inactive) | 10.6 µM (inactive) | 16.1 µM (inactive) | 19.1 µM (inactive) | 17.5 µM (inactive) | 40.9 µM (inactive) | 10.5 µM (inactive) | 18.7 µM (inactive) | 13.9 µM (inactive) | 19.1 µM (inactive) | 8.3 µM (inactive) | 19.5 µM (inactive) | 70.3 µM (inactive) | 34.2 µM (inactive) | 34.6 µM (inactive)
O=C1CC2OCC=C3CN4CCC5(C(=O)O)C(N1)C2C3CC45 (stereo not given) | > 100 µM (inactive) | > 100 µM (inactive) | > 100 µM (inactive) | > 100 µM (inactive) | > 100 µM (inactive) | > 100 µM (inactive) | > 100 µM (inactive) | > 100 µM (inactive) | > 100 µM (inactive) | > 100 µM (inactive) | > 100 µM (inactive) | > 100 µM (inactive) | > 100 µM (inactive) | > 100 µM (inactive) | > 100 µM (inactive) | > 100 µM (inactive) | > 100 µM (inactive) | > 100 µM (inactive) | > 100 µM (inactive) | > 100 µM (inactive)
CC1OC(OC2C(O[C@H]3CC[C@@]4(C)C(=CC[C@H]5[C@@H]6C[C@@H]7O[C@]8(CC[C@@H](CO)CO8)[C@@H](C)[C@@H]7[C@@]6(C)CC[C@@H]54)C3)OC(CO)C(O)C2OC2OC(CO)C(O)C(O)C2O)C(O)C(O)C1O (stereo not given in full) | 1.97 µM (inactive) | 1.73 µM (inactive) | 1.77 µM (inactive) | 2.04 µM (inactive) | 1.8 µM (inactive) | 2.03 µM (inactive) | 1.72 µM (inactive) | 1.71 µM (inactive) | 1.81 µM (inactive) | 1.53 µM (inactive) | 1.9 µM (inactive) | 1.85 µM (inactive) | 2.01 µM (inactive) | 1.71 µM (inactive) | 1.78 µM (inactive) | 2.52 µM (inactive) | 1.6 µM (inactive) | 2.01 µM (inactive) | 2.02 µM (inactive) | 1.79 µM (inactive)
CC1=C(CCC(C)CO)O[C@H]2C[C@H]3[C@@H]4CC[C@H]5C[C@@H](O)CC[C@]5(C)[C@H]4CC(=O)[C@]3(C)[C@@H]12 (stereo not given in full) | 27.2 µM (inactive) | 17.5 µM (inactive) | 23.6 µM (inactive) | 10.6 µM (inactive) | 18.9 µM (inactive) | 11.7 µM (inactive) | 9.62 µM (inactive) | 19.8 µM (inactive) | 19.1 µM (inactive) | 29.1 µM (inactive) | 5.08 µM (inactive) | 12.7 µM (inactive) | 18.9 µM (inactive) | 10.4 µM (inactive) | 6.87 µM (inactive) | 12.4 µM (inactive) | 19.2 µM (inactive) | 14.9 µM (inactive) | 22.3 µM (inactive) | 18 µM (inactive)
COC(=O)C(=O)C(C(=O)C(=O)Nc1ccc(C)c(C)c1)c1nc2ccc([N+](=O)[O-])cc2nc1O (stereo not given) | > 100 µM (inactive) | > 100 µM (inactive) | > 100 µM (inactive) | > 100 µM (inactive) | > 100 µM (inactive) | > 100 µM (inactive) | 48.4 µM (inactive) | > 100 µM (inactive) | > 100 µM (inactive) | > 100 µM (inactive) | > 100 µM (inactive) | > 100 µM (inactive) | > 100 µM (inactive) | > 100 µM (inactive) | > 100 µM (inactive) | 68.9 µM (inactive) | > 100 µM (inactive) | > 100 µM (inactive) | 18.5 µM (inactive) | > 100 µM (inactive)
